Measurements: patent US9359367B2, “Tetrahydroquinazolinone derivatives as PARP inhibitors” (Lupin Limited, priority 2012, dated 2016)

Each compound was assayed against T1, PARP1 (Homo sapiens, UniProt P09874) (assay: PARP1 Biochemical Assay (BPS Bioscience kit, chemiluminescence)). Conditions: histone-coated plate, biotinilated NAD+, 25° C. for 60 min, luminescence, read-out: PARP 1 inhibition IC50.
T1 construct: purchased BPS Bioscience
In short: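 Human PARP1 (25–75 ng/well) with activated DNA was incubated with compound on histone-coated wells. Biotinylated NAD+ was added and the reaction ran 60 min at 25 °C. Ribosylation was detected by streptavidin-HRP chemiluminescence, % inhibition was normalised to enzyme-free and uninhibited controls, and IC50 was fitted from % inhibition versus concentration.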

T1 sequence (P09874 whole entry): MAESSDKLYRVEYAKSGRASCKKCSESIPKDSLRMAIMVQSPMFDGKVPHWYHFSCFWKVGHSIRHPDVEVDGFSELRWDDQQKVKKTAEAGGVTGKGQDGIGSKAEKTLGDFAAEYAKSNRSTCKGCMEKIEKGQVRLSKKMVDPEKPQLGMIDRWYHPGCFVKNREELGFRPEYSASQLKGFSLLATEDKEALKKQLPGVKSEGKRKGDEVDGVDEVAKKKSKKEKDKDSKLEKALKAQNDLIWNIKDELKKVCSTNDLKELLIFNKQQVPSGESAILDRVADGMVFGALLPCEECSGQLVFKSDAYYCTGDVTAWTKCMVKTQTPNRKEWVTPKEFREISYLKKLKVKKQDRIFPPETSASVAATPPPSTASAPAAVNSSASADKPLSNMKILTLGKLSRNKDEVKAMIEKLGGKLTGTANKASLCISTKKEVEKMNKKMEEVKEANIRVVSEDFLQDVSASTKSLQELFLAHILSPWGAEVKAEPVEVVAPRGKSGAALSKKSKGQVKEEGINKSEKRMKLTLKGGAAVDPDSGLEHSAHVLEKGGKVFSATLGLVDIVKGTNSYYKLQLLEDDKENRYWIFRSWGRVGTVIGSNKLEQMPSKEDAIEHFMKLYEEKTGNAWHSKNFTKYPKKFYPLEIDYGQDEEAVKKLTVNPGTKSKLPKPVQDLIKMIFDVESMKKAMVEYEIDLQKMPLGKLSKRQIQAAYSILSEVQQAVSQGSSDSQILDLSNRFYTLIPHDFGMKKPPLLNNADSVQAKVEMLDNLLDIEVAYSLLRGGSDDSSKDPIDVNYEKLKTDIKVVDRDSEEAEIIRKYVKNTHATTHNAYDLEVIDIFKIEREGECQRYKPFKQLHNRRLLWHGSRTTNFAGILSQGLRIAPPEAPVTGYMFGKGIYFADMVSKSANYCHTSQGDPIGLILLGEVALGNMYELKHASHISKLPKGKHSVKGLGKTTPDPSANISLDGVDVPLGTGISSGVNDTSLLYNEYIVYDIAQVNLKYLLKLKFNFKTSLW

`Cc1cc(N2CCN([C@H]3C=C(c4nc5c(c(=O)[nH]4)CC4(CC5)CC4)CC3)CC2)ncc1F` [Compound 137, (R)-2′-(3-(4-(5-fluoro-4-methylpyridin-2-yl)piperazin-1-yl)cyclopent-1-en-1-yl)-7′,8′-dihydro-3′H-spiro[cyclopropane-1,6′-quinazolin]-4′(5′H)-one] and `Cc1cc(N2CCN([C@H]3C=C(c4nc5c(c(=O)[nH]4)CC4(CC5)CC4)CC3)CC2)ncc1Cl` [Compound 141, (R)-2′-(3-(4-(5-chloro-4-methylpyridin-2-yl)piperazin-1-yl)cyclopent-1-en-1-yl)-7′,8′-dihydro-3′H-spiro[cyclopropane-1,6′-quinazolin]-4′(5′H)-one] fall in the same range of IC50: 1 to 500 nM for the first, 1 to 500 nM for the second.

First: O=c1[nH]c(C2=C[C@H](N3CCN(c4cc(Cl)ccc4F)CC3)CC2)nc2c1CC1(CC2)CC1 [Compound 138, (R)-2′-(3-(4-(5-chloro-2-fluorophenyl)piperazin-1-yl)cyclopent-1-en-1-yl)-7′,8′-dihydro-3′H-spiro[cyclopropane-1,6′-quinazolin]-4′(5′H)-one]
Second: O=c1[nH]c(C2=C[C@H](N3CCN(c4c(F)cccc4Cl)CC3)CC2)nc2c1CC1(CC2)CC1 [Compound 139, (R)-2′-(3-(4-(2-chloro-6-fluorophenyl)piperazin-1-yl)cyclopent-1-en-1-yl)-7′,8′-dihydro-3′H-spiro[cyclopropane-1,6′-quinazolin]-4′(5′H)-one]
The IC50 of the first is lower: 501 to 5000 nM for the first, 5000 to 500000 nM for the second. The first is the more potent here.

First: Cc1cccc(N2CCN([C@H]3C=C(c4nc5c(c(=O)[nH]4)CC4(CC5)CC4)CC3)CC2)c1C [Compound 140, (R)-2′-(3-(4-(2,3-dimethylphenyl)piperazin-1-yl)cyclopent-1-en-1-yl)-7′,8′-dihydro-3′H-spiro[cyclopropane-1,6′-quinazolin]-4′(5′H)-one]
Second: Cc1c(Cl)cccc1N1CCN([C@H]2C=C(c3nc4c(c(=O)[nH]3)CC3(CC4)CC3)CC2)CC1 [Compound 143, (R)-2′-(3-(4-(3-chloro-2-methylphenyl)piperazin-1-yl)cyclopent-1-en-1-yl)-7′,8′-dihydro-3′H-spiro[cyclopropane-1,6′-quinazolin]-4′(5′H)-one]
The IC50 of the first is higher: 501 to 5000 nM for the first, 1 to 500 nM for the second. The second is the more potent here.

`O=c1[nH]c(C2=C[C@H](N3CCN(c4cncc(F)c4)CC3)CC2)nc2c1CC1(CC2)CC1` [Compound 142, (R)-2′-(3-(4-(5-fluoropyridin-3-yl)piperazin-1-yl)cyclopent-1-en-1-yl)-7′,8′-dihydro-3′H-spiro[cyclopropane-1,6′-quinazolin]-4′(5′H)-one] and `O=c1[nH]c(C2=C[C@H](N3CCN(c4ncc(Cl)cc4F)CC3)CC2)nc2c1CC1(CC2)CC1` [Compound 146, (R)-2′-(3-(4-(5-chloro-3-fluoropyridin-2-yl)piperazin-1-yl)cyclopent-1-en-1-yl)-7′,8′-dihydro-3′H-spiro[cyclopropane-1,6′-quinazolin]-4′(5′H)-one] fall in the same range of IC50: 1 to 500 nM for the first, 1 to 500 nM for the second.

First: Cc1ccc(C)c(N2CCN([C@H]3C=C(c4nc5c(c(=O)[nH]4)CC4(CC5)CC4)CC3)CC2)c1 [Compound 144, (R)-2′-(3-(4-(2,5-dimethylphenyl)piperazin-1-yl)cyclopent-1-en-1-yl)-7′,8′-dihydro-3′H-spiro[cyclopropane-1,6′-quinazolin]-4′(5′H)-one]
Second: Cc1cccc(N2CCN([C@H]3C=C(c4nc5c(c(=O)[nH]4)CC4(CC5)CC4)CC3)CC2)n1 [Compound 145, (R)-2′-(3-(4-(6-methylpyridin-2-yl)piperazin-1-yl)cyclopent-1-en-1-yl)-7′,8′-dihydro-3′H-spiro[cyclopropane-1,6′-quinazolin]-4′(5′H)-one]
The IC50 of the first is higher: 501 to 5000 nM for the first, 1 to 500 nM for the second. The second is the more potent here.

First: Cc1cc(N2CCN([C@H]3C=C(c4nc5c(c(=O)[nH]4)CC4(CC5)CC4)CC3)CC2)ccn1 [Compound 147, (R)-2′-(3-(4-(2-methylpyridin-4-yl)piperazin-1-yl)cyclopent-1-en-1-yl)-7′,8′-dihydro-3′H-spiro[cyclopropane-1,6′-quinazolin]-4′(5′H)-one]
Second: O=c1[nH]c(C2=C[C@H](N3CCN(c4ccc(-c5ccccc5)nc4)CC3)CC2)nc2c1CC1(CC2)CC1 [Compound 157, (R)-2′-(3-(4-(6-phenylpyridin-3-yl)piperazin-1-yl)cyclopent-1-en-1-yl)-7′,8′-dihydro-3′H-spiro[cyclopropane-1,6′-quinazolin]-4′(5′H)-one]
The IC50 of the first is lower: 1 to 500 nM for the first, 501 to 5000 nM for the second. The first is the more potent here.

`O=c1[nH]c(C2=C[C@H](N3CCN(c4ccc(-c5ccsc5)cc4)CC3)CC2)nc2c1CC1(CC2)CC1` [Compound 148, (R)-2′-(3-(4-(4-(thiophen-3-yl)phenyl)piperazin-1-yl)cyclopent-1-en-1-yl)-7′,8′-dihydro-3′H-spiro[cyclopropane-1,6′-quinazolin]-4′(5′H)-one] and `O=c1[nH]c(C2=C[C@H](N3CCN(c4ccc(-c5ccccc5)cc4)CC3)CC2)nc2c1CC1(CC2)CC1` [Compound 158, (R)-2′-(3-(4-([1,1′-biphenyl]-4-yl)piperazin-1-yl)cyclopent-1-en-1-yl)-7′,8′-dihydro-3′H-spiro[cyclopropane-1,6′-quinazolin]-4′(5′H)-one] fall in the same range of IC50: 501 to 5000 nM for the first, 501 to 5000 nM for the second.

`O=c1[nH]c([C@H]2CC[C@H](N3CCN(c4ccc(F)cc4)CC3)C2)nc2c1CC1(CC2)CC1` [Compound 149, 2′-((1S,3S)-3-(4-(4-fluorophenyl)piperazin-1-yl)cyclopentyl)-7′,8′-dihydro-3′H-spiro[cyclopropane-1,6′-quinazolin]-4′(5′H)-one] and `O=c1[nH]c([C@@H]2CC[C@H](N3CCN(c4ccc(F)cc4)CC3)C2)nc2c1CC1(CC2)CC1` [Compound 150, 2′-((1R,3S)-3-(4-(4-fluorophenyl)piperazin-1-yl)cyclopentyl)-7′,8′-dihydro-3′H-spiro[cyclopropane-1,6′-quinazolin]-4′(5′H)-one] fall in the same range of IC50: 1 to 500 nM for the first, 1 to 500 nM for the second.

First: O=c1[nH]c([C@H]2CC[C@@H](N3CCN(c4ccc(F)cc4)CC3)C2)nc2c1CC1(CC2)CC1 [Compound 151, 2′-((1S,3R)-3-(4-(4-fluorophenyl)piperazin-1-yl)cyclopentyl)-7′,8′-dihydro-3′H-spiro[cyclopropane-1,6′-quinazolin]-4′(5′H)-one]
Second: O=c1[nH]c([C@@H]2CC[C@@H](N3CCN(c4ccc(F)cc4)CC3)C2)nc2c1CC1(CC2)CC1 [Compound 152, 2′-((1R,3R)-3-(4-(4-fluorophenyl)piperazin-1-yl)cyclopentyl)-7′,8′-dihydro-3′H-spiro[cyclopropane-1,6′-quinazolin]-4′(5′H)-one]
The IC50 of the first is lower: 1 to 500 nM for the first, 501 to 5000 nM for the second.

Compared with `O=c1[nH]c([C@@H]2CC[C@H](N3CCN(c4cccc(F)c4)CC3)C2)nc2c1CC1(CC2)CC1` [Compound 153, 2′-((1R,3S)-3-(4-(3-fluorophenyl)piperazin-1-yl)cyclopentyl)-7′,8′-dihydro-3′H-spiro[cyclopropane-1,6′-quinazolin]-4′(5′H)-one], `O=c1[nH]c([C@H]2CC[C@H](N3CCN(c4cccc(F)c4)CC3)C2)nc2c1CC1(CC2)CC1` [Compound 154, 2′-((1S,3S)-3-(4-(3-fluorophenyl)piperazin-1-yl)cyclopentyl)-7′,8′-dihydro-3′H-spiro[cyclopropane-1,6′-quinazolin]-4′(5′H)-one] is lower in IC50: 5000 to 500000 nM for the first, 1 to 500 nM for the second. The second is the more potent here.

First: O=c1[nH]c([C@H]2CC[C@@H](N3CCN(c4cccc(F)c4)CC3)C2)nc2c1CC1(CC2)CC1 [Compound 155, 2′-((1S,3R)-3-(4-(3-fluorophenyl)piperazin-1-yl)cyclopentyl)-7′,8′-dihydro-3′H-spiro[cyclopropane-1,6′-quinazolin]-4′(5′H)-one]
Second: O=c1[nH]c([C@@H]2CC[C@@H](N3CCN(c4cccc(F)c4)CC3)C2)nc2c1CC1(CC2)CC1 [Compound 156, 2′-((1R,3R)-3-(4-(3-fluorophenyl)piperazin-1-yl)cyclopentyl)-7′,8′-dihydro-3′H-spiro[cyclopropane-1,6′-quinazolin]-4′(5′H)-one]
The IC50 of the first is lower: 501 to 5000 nM for the first, 5000 to 500000 nM for the second.

`O=c1[nH]c(C2=CC(N3C4CCC3CN(c3ccc(Cl)cc3)C4)CC2)nc2c1CC1(CC2)CC1` (centres unmarked) [Compound 159, 2′-(3-(3-(4-chlorophenyl)-3,8-diazabicyclo[3.2.1]octan-8-yl)cyclopent-1-en-1-yl)-7′,8′-dihydro-3′H-spiro[cyclopropane-1,6′-quinazolin]-4′(5′H)-one] gave an IC50 of 5000 to 500000 nM.
